This note sets out measurements from patent US20150045610A1, “METHOD OF MODIFYING SPERMATOGENESIS, SPERMIOGENESIS AND/OR FERTILITY IN MAMMALS” (Monell Chemical Senses Center, priority 2012, published 2015).

Entries after “also recorded” stand apart in the source; their conditions may differ. Read-outs that look alike come from different tables or passages of the source.

For one experiment, the target named is T1, human T1R3 receptor (Homo sapiens, UniProt Q7RTX0).
T1 construct: expressed in transfected cells
T1 sequence (Q7RTX0 21-852): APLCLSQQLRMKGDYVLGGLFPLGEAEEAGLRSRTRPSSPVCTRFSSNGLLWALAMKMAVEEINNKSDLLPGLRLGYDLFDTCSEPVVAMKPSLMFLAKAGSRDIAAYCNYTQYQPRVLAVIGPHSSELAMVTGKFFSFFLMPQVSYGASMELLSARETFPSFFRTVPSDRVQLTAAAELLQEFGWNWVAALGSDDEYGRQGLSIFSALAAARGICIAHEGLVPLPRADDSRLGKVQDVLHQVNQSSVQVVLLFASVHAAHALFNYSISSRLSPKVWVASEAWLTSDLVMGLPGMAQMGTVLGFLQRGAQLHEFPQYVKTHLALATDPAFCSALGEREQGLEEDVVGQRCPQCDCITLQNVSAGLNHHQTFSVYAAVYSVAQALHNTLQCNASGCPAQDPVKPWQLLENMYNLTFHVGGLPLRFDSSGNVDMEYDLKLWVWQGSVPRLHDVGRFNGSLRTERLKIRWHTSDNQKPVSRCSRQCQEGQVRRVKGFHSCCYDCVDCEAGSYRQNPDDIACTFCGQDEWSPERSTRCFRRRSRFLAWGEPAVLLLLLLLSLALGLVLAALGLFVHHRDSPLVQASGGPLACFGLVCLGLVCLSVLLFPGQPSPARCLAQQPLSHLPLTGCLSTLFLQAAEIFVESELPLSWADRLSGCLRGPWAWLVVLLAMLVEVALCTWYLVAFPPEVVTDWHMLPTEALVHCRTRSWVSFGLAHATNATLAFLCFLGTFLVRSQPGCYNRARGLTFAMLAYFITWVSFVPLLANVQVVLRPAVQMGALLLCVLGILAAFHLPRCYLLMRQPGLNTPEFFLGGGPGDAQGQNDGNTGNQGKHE
T1 sequence (Q8TE23 20-839 partner): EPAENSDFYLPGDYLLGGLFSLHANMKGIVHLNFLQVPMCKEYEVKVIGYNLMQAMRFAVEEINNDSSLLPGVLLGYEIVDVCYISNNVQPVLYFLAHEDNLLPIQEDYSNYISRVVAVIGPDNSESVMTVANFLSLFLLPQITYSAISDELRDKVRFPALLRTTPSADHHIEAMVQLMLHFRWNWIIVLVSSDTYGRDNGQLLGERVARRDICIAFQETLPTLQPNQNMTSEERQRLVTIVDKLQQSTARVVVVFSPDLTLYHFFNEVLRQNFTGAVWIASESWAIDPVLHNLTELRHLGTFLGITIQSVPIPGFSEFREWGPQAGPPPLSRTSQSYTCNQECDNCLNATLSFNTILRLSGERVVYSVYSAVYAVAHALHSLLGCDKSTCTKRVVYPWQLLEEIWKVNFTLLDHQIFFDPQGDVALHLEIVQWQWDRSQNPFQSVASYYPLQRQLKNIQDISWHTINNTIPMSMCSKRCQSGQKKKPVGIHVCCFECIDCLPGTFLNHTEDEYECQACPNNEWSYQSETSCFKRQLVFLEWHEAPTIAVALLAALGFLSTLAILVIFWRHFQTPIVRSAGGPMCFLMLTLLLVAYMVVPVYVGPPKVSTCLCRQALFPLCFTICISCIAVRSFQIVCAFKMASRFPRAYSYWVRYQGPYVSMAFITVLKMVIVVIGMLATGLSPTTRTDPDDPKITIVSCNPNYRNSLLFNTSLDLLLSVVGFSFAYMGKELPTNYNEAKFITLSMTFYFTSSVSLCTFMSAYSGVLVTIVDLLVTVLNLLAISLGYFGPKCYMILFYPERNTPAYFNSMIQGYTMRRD
Description: sweet receptor inhibition assay (receptor activated with 2.5 mM sucralose). The format is cell-based. As for the experimental part:
FIG. 1 is a bar graph showing human (h), mouse (m) and chimeric mouse/human (m/h) sweet receptors activated with 2.5 mM sucralose and assayed for inhibition by certain T1R3 inhibitors or controls, measured by DF/F in %.
Chimeric receptors of T1R3 contained the extracellular portion of human or mouse receptor and the transmembrane domain and C-terminal domain from mouse or human receptor: mh indicates the presence of the mouse extracellular domain and human transmembrane domain; hm indicates the presence of the human extracellular domain and mouse transmembrane domain.

Another experiment relates to sperm. The experiment in a line: sperm motility in vitro. It is filed as cell-based, mouse. The conditions noted are these: sperm of WT and mutant mice, clofibric acid in media (2 mM elsewhere in the source). The source says:
We observed spermatozoa after clofibrate treatment represent cells that were able to escape the inhibition of clofibric acid, most likely due to very fast clearance and fluctuating levels in rodents. This allows some tubular cells to complete the developmental cycle. Therefore, we measured sperm concentration as an indicator of efficiency of the pharmacological block and to be able to determine the concentration that results in effective sterility. We analyzed testicular morphology, sperm production, sperm motility and sperm function in in vitro fertilization after feeding these animals with the lipid lowering drug clofibrate. We tested an acute inhibition of sperm motility and function in vitro by incubating sperm from the engineered mice (mGus−/−, mT1R3−/−, hmT1R3+) in solutions containing clofibric acid or other T1R3 inhibitors. The concentration used was similar to the one used in human treatment with fibrates (˜0.03 g/kg weight, for 3 weeks). We tested sperm motility and function in vitro of the Gα-gustducin KO mice (missing only the Gα-gustducin gene (mGus−/−)) after blocking T1R3 receptors with the rodent specific inhibitor gurmarin (3 mg/ml).
We evaluated the residual sperm that was produced by the line 7c mice in more detail. […] From all the above results, the combined lack of T1R3 and α-gustducin exerted its effect primarily at the level of developing spermatocytes in testis.

Regarding `CC(C)(Oc1ccc(Cl)cc1)C(=O)O` [clofibric acid], the IC50 (as a rule, the midpoint of a concentration-inhibition curve) at human T1R3 receptor (read-out: IC50, block of the T1R3 receptor) is 28 µM; on human T1R3 receptor (read-out: IC50 values, human T1R3 inhibitors), 0.028 µM. Further, the sperm motility entry in the experiment with sperm is reported as “no differences; also recorded: not affected”.
